Laboratory results as given in US20240254439A1, “METHOD FOR PREPARING TASTE BUD ORGANOIDS USING ANTERIOR TONGUE EPITHELIAL CELLS” (Korea University Research and Business Foundation, priority 2023, published 2024).

Legend:
[1] = test system: taste bud organoids from anterior tongue epithelial tissue; experiment: Culture efficiency (growth efficiency, size) of taste bud organoids from anterior tongue epithelial tissue; assay type: cell-based, mouse; settings: added alone or in combination to basic culture medium supplemented with R-spondin1 and noggin; SAG added under all these conditions (FIG. 2)
Description: (§1) The tongue was collected from a mouse, and dispase II enzyme (2 mg/mL) (Roche, cat #4942078001) diluted in physiological saline was injected into the space between the epithelium and subepithelial connective tissue to expand the tongue tissue ((2) in FIG. 1), and the expanded tongue tissue was cultured in dispase II enzyme dilution at 37° C. for 30 minutes. The epithelial layer is peeled off from the subepithelial connective tissue to separate the epithelial lamina therefrom, and it is cut into as small an area as possible using tools such as sterilized surgical scissors or a knife in trypsin/EDTA (Gibco, cat #25200072) solution. The finely cut tissues were cultured at 37° C. for 30 minutes. Thereafter, the finely cut tissues are subjected to pressure by continuous pipetting to extract cells from the tissue and form a single cell suspension. The cell pellets obtained by centrifuging this suspension are embedded in an extracellular matrix such as Matrigel at an appropriate ratio.
(§2) All culture media are based on basic culture medium (DMEM/F12+1×GlutaMax+1×HEPES+1×N2 supplement+1×B27 supplement+1×penicillin/streptomycin).
(§3) The single cells embedded in the Matrigel were cultured in differentiation medium 1 (FIRNY+SAG) for 4 days, then cultured for 10 days, while replacing the culture medium with differentiation medium 2 (FIRN+SAG+CHIR_SU5402) and changing the medium culture every 2-3 days.

[2] = test system: taste bud organoids from anterior tongue epithelial tissue; experiment: Differentiation into taste cells in anterior tongue taste bud organoids, immunofluorescence staining of taste cell markers; assay type: cell-based, mouse
Description: as §1, §2, §3
In culturing taste bud organoids from anterior tongue epithelial tissue, it was confirmed by immunofluorescence staining that when SAG-containing basic culture medium was treated with CHIR99021 (CHIR), which stimulates the Wnt and Notch signaling pathways, the differentiation efficiency into type 1, type 2 and type 3 taste cells all increased (FIG. 4).
In order to confirm the optimization of the expression efficiency of markers for cells that make up taste buds in organoids and the differentiation efficiency into cells that make up taste buds by components other than CHIR, CHIR was added after the first 3 days of culture, and organoids were cultured in culture medium in which FGF was removed or SU5402 was additionally added. As a result, it was confirmed by immunofluorescence staining that when FGF was removed or SU5402 was additionally input after 3 days of culture, the differentiation efficiency into type 2 and type 3 taste cells increased (FIG. 6).

## FGF2: fibroblast growth factor 2, protein that regulates cell growth, proliferation and differentiation
[1]
  growth efficiency or size of the organoid itself: no change
[2]; growth factor added to SAG-containing medium with R-spondin1 and noggin, immunofluorescence staining (FIG. 3)
  differentiation efficiency into taste cells: differentiation efficiency increased

## Cc1cnc(-c2cnc(NCCNc3ccc(C#N)cn3)nc2-c2ccc(Cl)cc2Cl)[nH]1 [CHIR99021]
[2]; SAG-containing basic culture medium treated with CHIR99021, immunofluorescence staining (FIG. 4)
  differentiation efficiency into type 1, type 2 and type 3 taste cells: all increased
[2]; treated with CHIR on days 3, 5 or 7, immunofluorescence staining (FIG. 5)
  differentiation efficiency into type 1, type 2 and type 3 taste cells by CHIR-treated time: the earlier treatment with CHIR, the higher the differentiation efficiency

## CNC1CCC(N(Cc2cccc(-c3ccncc3)c2)C(=O)c2sc3ccccc3c2Cl)CC1 (stereo not drawn) [SAG]
[1]
  growth efficiency or size of the organoid itself: no change
[2]; SAG added to basic culture medium with R-spondin1 and noggin, with or without EGF, FGF2, IGF1 (FIG. 3)
  differentiation into type 1, type 2 and type 3 taste cells: differentiation into type 1, type 2 and type 3 taste cells was confirmed

## IGF1: insulin-like growth factor 1, protein that regulates cell growth, proliferation and differentiation
[1]
  growth efficiency or size of the organoid itself: no change

## EGF: growth factor added to the basic culture medium (NSDSECPLSHDGYCLHDGVCMYIEALDKYACNCVVGYIGERCQYRDLKWWELR; UniProt P01133 971-1023, looked up)
[1]
  growth efficiency or size of the organoid itself: no change

## Cc1c[nH]c(/C=C2\C(=O)Nc3ccccc32)c1CCC(=O)O [SU5402]
[2]; CHIR added after the first 3 days of culture, SU5402 additionally input after 3 days, immunofluorescence staining (FIG. 6)
  differentiation efficiency into type 2 and type 3 taste cells: increased
